Active and inactive are the calls of the source. Cut-off read from the data, not from the text of the source: actives have a measured IC50 and inactives only a lower limit.
Target: Envelope glycoprotein gp160 (Human immunodeficiency virus 1, UniProt Q6QLK5)
Assay: inhibitors of HIV fusion peptide binding, primary screen, biochemical, uHTS, fluorescence dequenching (AID 1986)

Sequence of Envelope glycoprotein gp160 (Q6QLK5 whole entry, the tested form may be a part): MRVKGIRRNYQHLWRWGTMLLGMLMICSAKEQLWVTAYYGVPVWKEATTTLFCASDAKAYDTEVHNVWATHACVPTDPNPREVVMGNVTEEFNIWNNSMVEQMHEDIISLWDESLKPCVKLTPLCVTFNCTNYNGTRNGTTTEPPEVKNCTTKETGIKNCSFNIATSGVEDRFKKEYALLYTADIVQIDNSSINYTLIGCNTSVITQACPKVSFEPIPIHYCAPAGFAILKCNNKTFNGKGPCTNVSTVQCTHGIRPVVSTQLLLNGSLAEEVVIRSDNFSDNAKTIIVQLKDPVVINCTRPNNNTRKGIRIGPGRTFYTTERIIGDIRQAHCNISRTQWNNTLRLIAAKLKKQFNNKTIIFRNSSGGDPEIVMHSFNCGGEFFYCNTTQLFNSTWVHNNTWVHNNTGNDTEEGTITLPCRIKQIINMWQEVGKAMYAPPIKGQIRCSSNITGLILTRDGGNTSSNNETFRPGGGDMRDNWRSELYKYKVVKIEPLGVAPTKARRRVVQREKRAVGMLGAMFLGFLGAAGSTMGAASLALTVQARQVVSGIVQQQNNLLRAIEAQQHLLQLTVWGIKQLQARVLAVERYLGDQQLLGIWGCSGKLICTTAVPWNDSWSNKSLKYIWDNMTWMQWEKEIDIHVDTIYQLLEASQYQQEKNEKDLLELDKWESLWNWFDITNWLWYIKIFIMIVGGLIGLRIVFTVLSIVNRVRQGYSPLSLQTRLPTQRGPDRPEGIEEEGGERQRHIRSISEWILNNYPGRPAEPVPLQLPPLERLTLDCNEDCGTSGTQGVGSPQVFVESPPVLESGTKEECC

**Q.** O=C(CCN1C(=O)/C(=C\C=C\c2ccccc2)SC1=S)Nc1ccccc1C(=O)O was tested. Which IC50 did it give?
**A.** 20.2 µM (active)

**Q.** For COc1cc(/C=C2/SC(=S)NC2=O)ccc1OS(=O)(=O)c1ccc(C)cc1, which IC50 is on record?
**A.** 16.5 µM (active)

**Q.** For O=C(O)c1cc(-c2ccc(-c3c(-c4ccc5c(c4)OCO5)noc3-c3ccsc3)cc2)nc2ccccc12, which IC50 is on record?
**A.** 52.2 µM (active)

**Q.** For O=C(Nc1cc(S(=O)(=O)N2CCCCC2)ccc1Cl)c1ccccc1NS(=O)(=O)c1ccc(F)cc1, which IC50 is on record?
**A.** 13.4 µM (active)

**Q.** Which IC50 does the source give for O=C(O)COc1ccccc1/C=N/Nc1ccc(S(=O)(=O)Nc2ccc(Cl)cc2)cc1[N+](=O)[O-] here?
**A.** 19.6 µM (active)
